From PMC9456491, “Targeting the Mitochondrial Protein VDAC1 as a Potential Therapeutic Strategy in ALS” (International Journal of Molecular Sciences, 2022)

Tests used:
[1] = tested on: mice; settings: mouse, in vivo; cited from earlier work
Excerpt: Mutant SOD1^G93A female mice were divided into three groups (10 mice per group): a control group (DMSO), VBIT-4-, and VBIT-12-treated groups.

[2] = tested on: release of mitochondrial DNA (mtDNA); cGAS/STING; parameters: method as in PMID 34217890; settings: ref [45]; cited from earlier work
[3] = tested on: iPSC-derived motor neurons from ALS patients carrying mutations in TDP-43; parameters: method as in PMID 33031745; settings: TDP-43 mutations, ref [58]; cited from earlier work
[4] = tested on: VDAC1; experiment: VDAC1 oligomerization in spinal cord mitochondria (EGS crosslinking); type: biochemical; settings: spinal cord mitochondria 1 mg/mL from SOD1^G93A mice, VBIT-4 20 μM, 10 min pre-incubation, PBS pH 8.3, 20 min, 30 °C, immunoblot, dimer quantification, n = 3
Procedure: (§1) Figure 3 VDAC1 oligomerization is increased in mutant SOD1^G93A spinal cord mitochondria. […] A cell viability analysis was performed using the CellTiter 96 AQueous One-Solution cell proliferation assay using a plate reader at 490 nm. (B,C) Spinal cord mitochondria (1 mg/mL) from non-transgenic, SOD1^WT or SOD1^G93A rats were incubated for 10 min at 30 °C in 10 mM Tricine, pH 8.2, with the indicated concentration of the crosslinking reagent EGS (B) or DSP (C). Sample buffer for electrophoresis containing 2-mercaptoethanol, except for DSP (S-S-containing reagent), was added, and the samples were subjected to SDS/PAGE (10% gel) and immunoblot analysis using anti-VDAC1 antibodies. (D,E) Spinal cord mitochondria (1 mg/mL, n = 3) from non-transgenic or SOD1^G93A mice were incubated for 20 min at 30 °C in PBS, pH 8.3, with the indicated concentration of EGS, and subjected to SDS-PAGE (10%), immunoblotting (D), and quantitative analysis (E). (F,G) Spinal cord mitochondria isolated from SOD1^G93A mice were pre-incubated with VBIT-4 (10 min, 20 μM) and subjected to cross linking as described in D. Samples were subjected to SDS/PAGE 4–15% gradient gel and immunoblotting using anti-VDAC1 antibodies (F) and to dimer quantitative analysis (G). VDAC1 dimer levels were quantified using ImageJ software. The positions of VDAC1 monomers, dimers, trimers, tetramers, and higher oligomers are indicated. […]

[5] = tested on: VDAC1; parameters: method as in PMID 27738100, PMID 30293774, PMID 31857488, PMID 34217890; settings: ref [49], [43], [44], [45]; cited from earlier work
[6] = tested on: VDAC1 oligomerization; settings: ref [49]; cited from earlier work
[7] = tested on: mutant SOD1^G93A transgenic mice; experiment: SOD1^G93A mouse ALS model, drinking water treatment; type: in vivo; settings: SOD1^G93A female mice, drinking water 0.0625 mg/mL, about 20 mg/kg daily; n = 10; vs DMSO
Procedure: (§2) Mutant SOD1^G93A transgenic mice (B6SJL-TgN-SOD1-G93A-1Gur) were obtained from The Jackson Laboratory (Bar Harbor, ME, USA) for the experiments. All experiments were approved by the Animal Care and Use Committee of Ben-Gurion University of the Negev, as required by Israeli legislation, and all efforts were taken to minimize animal suffering.
VBIT-4 and VBIT-12 were dissolved in DMSO (80 mg/mL) and then diluted in drinking water while being added in a dropwise manner into the acidic water to a final concentration of 0.0625 mg/mL. Considering an estimated daily water consumption of a 25 g mouse as 6–8 mL per mouse, the daily dose of VBIT-4 and VBIT-12 was determined. Assuming a mouse drinks about 8 mL of water daily, it consumed 20 mg/kg of the compound. Control untreated WT mice received water containing DMSO (0.36%) at the final concentration as in VBIT-4 or VBIT-12 drinking solutions. Mutant SOD1^G93A female mice were randomly divided to receive drinking water containing VBIT-4, VBIT-12, or DMSO for the control. Water consumption was verified daily.
Mean age of disease onset, defined as the time when mice reached peak body weight (A, B), and disease end stage, defined as the time when the mouse could not right itself within 20 s when placed on its side (C, D) of mutant SOD1G93A mice without (control, n = 10, blue) and with treatment of VBIT‐4 (n = 10, red) or VBIT‐12 (n = 10, green) through drinking water. The results are the means ± SD. (E–G) Mean (± SD) duration of early disease (from onset to 10% weight loss) (E), duration of late disease (from 10% weight loss to end stage) (F), and disease progression (from onset to end stage) (G). At each time point, the p‐ value was determined by a Student’s t‐test. Error bars denote SDs. Plot of averaged forelimb (H) and hindlimb (I) grip strength for SOD1G93A female mice untreated (n = 10, blue), treated with VBIT‐4 (n = 10, red), or treated with VBIT‐12 (n = 10, green) through the drinking water. SOD1G93A mice were monitored up to the end stage. The untreated SOD1G93A mice received water with the same concentration of DMSO as controls. At each time point, the p‐value was determined by a Student’s t‐test. Error bars denote SDs.
Table S1. Antibodies used in the study

[8] = tested on: mutant SOD1^G93A transgenic mice; experiment: SOD1^G93A mouse ALS model, IP treatment; type: in vivo
Procedure: Mean age of disease onset, defined as the time when mice reached peak body weight as a function of time (A,B), and disease end stage, defined as the time when the mouse could not right itself within 20 s when placed on its side (C,D) considering mutant SOD1^G93A mice IP-injected every second day with 200 µL DMSO 4% (control, n = 10, blue) or with VBIT-12 (26 mg/kg) (n = 10, green). The results are the means ± SD. (E–G) The means ± SD for the duration of early disease (from onset to 10% weight loss) (E), duration of late disease (from 10% weight loss to end stage) (F), and disease progression (from onset to end stage) (G) are presented. Plots of the averaged forelimb (H) and hindlimb (I) grip strength for SOD1^G93A female mice untreated (n = 10, blue) or treated with VBIT-12 (n = 10, green). SOD1^G93A mice were monitored up to the end stage. At each time point, the p-value was determined by Student’s t-test with SD. * p < 0.05; ns, non-significant.
as §2
For intraperitoneal (IP) injection, VBIT-12 (80 mg/mL) in DMSO was diluted with saline, pH 7.0, to a final concentration of 3.25 mg/mL. Mice received 200 µL by IP injection resulting in a final VBIT-12 concentration of ~26 mg/Kg. VBIT-12 was IP injected every second day starting from day 60 for 12 weeks, and then the VBIT-12 final concentration was reduced to ~13 mg/Kg. The control group was IP injected with around 200 µL of DMSO (4%).

[9] = tested on: motor-neuron-like NSC-34 cells expressing human SOD1^G93A; experiment: Viability of NSC-34 cells expressing mutant SOD1^G93A; type: cell-based; settings: NSC-34, human SOD1^G93A; VBIT-12 15 µM, 12 h, 24 h post-transfection; 490 nm; n = 3, means ± SEM
Procedure: as §1

[10] = SOD1^G93A female mice, IP 26 mg/kg every other day from day 60, then ~13 mg/Kg, n = 10, during disease progression, Student's t-test
[11] = SOD1^G93A mice, IP 26 mg/kg every other day from day 60 for 12 weeks, then ~13 mg/Kg, n = 10, vs DMSO 4%

SMILES | tolerability [1] | inhibition of mtDNA release and inflammation [2] | prevention of cytosolic accumulation of mtDNA and inflammation [3] | inhibition of VDAC1 oligomerization [4] | inhibition of VDAC1 conductance [5] | effect on cells under physiological conditions [6] | prevention of VDAC1 oligomerization and apoptotic cell death [6] | prevention of cytosolic Ca^2+ elevation and ROS production [6] | disease onset (peak body weight) [7] | survival (disease end stage) [7] | forelimb grip (pulling) strength [8, 10] | hindlimb grip (pulling) strength [8, 10] | maintenance of limb muscle strength over time ([8]; SOD1^G93A mice, IP 26 mg/kg every other day from day 60, then ~13 mg/Kg, n = 10, vs DMSO 4%) | disease onset [8, 11] | survival [8, 11] | muscle function and survival (summary) ([8]; SOD1^G93A transgenic mice, "daily treatment" as worded in the discussion) | prevention of mutant SOD1 cell toxicity (cell survival) [9] | muscle endurance, hindlimb grip strength [7]
O=C(CC(CO)N1CCN(c2ccc(OC(F)(F)F)cc2)CC1)Nc1ccc(Cl)cc1 (stereo not drawn) [VBIT-4] | well tolerated in mice | inhibit the release of mitochondrial DNA (mtDNA) via preventing VDAC1 oligomerization and inhibiting inflammation | prevented the cytosolic accumulation of mtDNA and inflammation | inhibited the oligomerization of VDAC1 | inhibit VDAC1 conductance | no effect on cells under physiological conditions | prevent both VDAC1 oligomerization and apoptotic cell death | prevent VDAC1 oligomerization, and, thereby, apoptosis and apoptosis-associated processes such as cytosolic Ca^2+ elevation and ROS production | no effect on disease onset | no effect on disease onset (Figure S3A,B) or survival | – | – | – | – | – | – | – | –
O=C(O)CNC(=O)C1(Nc2ccccc2)CCN(Cc2cccc3ccccc23)CC1 [VBIT-12] | – | – | – | – | inhibit VDAC1 conductance | no effect on cells under physiological conditions | prevent both VDAC1 oligomerization and apoptotic cell death | prevent VDAC1 oligomerization, and, thereby, apoptosis and apoptosis-associated processes such as cytosolic Ca^2+ elevation and ROS production | no effect on disease onset | no effect on disease onset (Figure S3A,B) or survival | significantly greater pulling strength | significantly greater pulling strength | maintained their limb muscle strength for a significantly more extended period of time | positive tendency in delaying disease onset (Figure 5A,B) and survival of SOD1^G93A mice, although this was not statistically significant | positive tendency in delaying disease onset (Figure 5A,B) and survival of SOD1^G93A mice, although this was not statistically significant | significantly improved muscle function, without extending survival | partially prevented the mutant SOD1 cell toxicity effect | some benefit on muscle endurance as measured by grip strength in the hindlimbs
